The target in this experiment is T1, human Y4 receptor (Homo sapiens, UniProt P50391).
T1 construct: expressed in transfected cells
As to the kind of experiment: NPY4 cAMP HTRF Agonist Assay (inhibitory cAMP assay, Gi activation by Y4 agonism). Format: cell-based. Put shortly:
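CHO cells stably expressing human Y4, 5000/well, exposed to compound with forskolin and IBMX in PBS for 30 min at room temperature. Gi-mediated inhibition of cAMP then measured by HTRF after 1 h with d2-conjugate and anti-cAMP cryptate.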
In general terms: In TR-FRET formats the signal depends on donor and acceptor labels being close together.

The mark [1] stands for this setting: human Y4 stable CHO clonal cells, forskolin + IBMX, read-out: NPY4 cAMP HTRF Agonist Assay EC50.
[2] abbreviates: second TABLE 1, R2 is Phenyl-CF3, read-out: hY4 CAMP EC50.
The mark [3] stands for this setting: human Y4 receptor, cAMP, read-out: hY4 CAMP EC50.
[4] abbreviates: TABLE 5, R2 is Pyridinyl-CF3, read-out: hY4 CAMP EC50.
[5] abbreviates: TABLE 4, R2 is Pyridinyl-CN, read-out: hY4 CAMP EC50.
Where [6] appears, read: TABLE 2, R2 is Phenyl-CN, read-out: hY4 CAMP EC50.

Molecules are shown by their SMILES. Where two headings read alike, the source gives them in different places.

Consider 45 molecules from US8815909B2, “Diaminocyclohexane compounds and uses thereof” (Bristol-Myers Squibb Company, priority 2011, dated 2014).

T1 sequence (P50391 whole entry): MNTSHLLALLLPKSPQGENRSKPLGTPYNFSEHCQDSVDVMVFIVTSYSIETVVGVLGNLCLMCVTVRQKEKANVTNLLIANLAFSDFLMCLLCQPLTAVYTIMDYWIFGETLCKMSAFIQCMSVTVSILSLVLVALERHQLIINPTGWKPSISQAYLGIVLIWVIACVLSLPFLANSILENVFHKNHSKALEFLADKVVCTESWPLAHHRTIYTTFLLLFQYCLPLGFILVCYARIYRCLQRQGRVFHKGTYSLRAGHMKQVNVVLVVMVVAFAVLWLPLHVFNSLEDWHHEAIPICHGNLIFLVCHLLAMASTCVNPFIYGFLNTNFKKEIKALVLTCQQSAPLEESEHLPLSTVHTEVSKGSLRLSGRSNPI

A word on the EC50: it is the concentration that produces a half-maximal response. Turning to `O=[N+]([O-])c1ccc(N2CCC[C@H](N[C@@H]3CCCC[C@H]3Nc3nc4ccccc4o3)C2)cc1` [Example 3, (1R,2R)—N1-(Benzo[d]oxazol-2-yl)-N2-((S)-1-(4-nitrophenyl)piperidin-3-yl)cyclohexane-1,2-diamine], under setting [1], the half-maximal effective concentration (EC50) turned out to be 69 nM.
As for `FC(F)(F)c1ccc(N2CCC[C@H](N[C@@H]3CCCC[C@H]3Nc3cc(-n4cccc4)ccn3)C2)cc1` [Example 190], under setting [2], the EC50 turned out to be 51 nM.
`COC(=O)Nc1cccc(-c2ccnc(N[C@@H]3CCCC[C@H]3N[C@H]3CCCN(c4ccc(-c5noc(C6CC6)n5)cc4)C3)c2)c1` [Example 458]: the concentration giving a half-maximal response (EC50) under setting [3] amounted to 0.2 nM.
Consider `Cc1nnc(-c2ccc(N3CCC[C@H](N[C@@H]4CCCC[C@H]4Nc4cc(-c5cccc(S(N)(=O)=O)c5)ccn4)C3)cc2)o1` [Example 377], for which the EC50 under setting [3] was determined as 93 nM.
Turning to `NC(=O)c1cccc(-c2ccnc(N[C@@H]3CCCC[C@H]3N[C@H]3C[C@@H]4C[C@H]3N(c3ccc(C(F)(F)F)cn3)C4)c2)c1` [Example 337], the 50% effective concentration (EC50) under setting [4] stood at 26 nM.
In the case of `CC(O)c1cccc(-c2ccnc(N[C@@H]3CCCC[C@H]3NC3CCCN(c4ccc(C#N)nc4)C3)c2)c1` (stereo partly drawn) [Example 313], the half-maximal effective concentration (EC50) under setting [5] turned out to be 68 nM.
In the case of `N#Cc1ccc(N2CCC[C@H](N[C@@H]3CCCC[C@H]3Nc3cc(-c4ccc(Cl)cc4)ccn3)C2)cc1` [Example 46, 4-((S)-3-((1R,2R)-2-(4-(4-Chlorophenyl)pyridin-2-ylamino)cyclohexylamino)piperidin-1-yl)benzonitrile tris-trifluoroacetate], under setting [1], the EC50 came to 208 nM.
`N#Cc1ccc(N2CCC[C@H](N[C@@H]3CCCC[C@H]3Nc3cc(-c4cc[nH]n4)ccn3)C2)cc1` [Example 33, 4-((S)-3-((1R,2R)-2-(4-(1H-Pyrazol-3-yl)pyridin-2-ylamino)cyclohexylamino)piperidin-1-yl)benzonitrile tris-trifluoroacetate]: the EC50 under setting [1] stood at 322 nM.
Regarding `FC(F)(F)c1ccc(N2CCC[C@H](N[C@@H]3CCCC[C@H]3Nc3ncc(-c4ccccc4)cn3)C2)cc1` [Example 176], the EC50 under setting [2] turned out to be 579 nM.
With `N#Cc1ccc(N2CCCC(N[C@@H]3CCCC[C@H]3Nc3ncc(-c4cccc(C(N)=O)c4)o3)C2)nn1` (stereo partly drawn) [Example 479], under setting [3], the EC50 turned out to be 333 nM.
`N#Cc1ccc(N2CCC[C@H](N[C@@H]3CCCC[C@H]3Nc3cc(-c4cccc(C(N)=O)c4)ccn3)C2)nc1` [Example 300]: under setting [5], the EC50 is 130 nM.
As for `C[C@H](O)c1cccc(-c2ccnc(N[C@@H]3CCCC[C@H]3N[C@H]3CCCN(c4ccc(C(F)(F)F)cc4)C3)c2)c1` [Example 167], the 50% effective concentration (EC50) under setting [2] was determined as 6 nM.
As for `C[C@]1(N[C@@H]2CCCC[C@H]2Nc2ncc(-c3cccc(C(N)=O)c3)o2)CCCN(c2ccc(C#N)nc2)C1` [Example 304], the concentration for a half-maximal effect (EC50) under setting [5] is 3 nM.
Take `OC1(c2cccc(-c3ccnc(N[C@@H]4CCCC[C@H]4N[C@H]4CCCN(c5ccc(C(F)(F)F)cc5)C4)c3)c2)CC1` [Example 151]: under setting [2], the concentration giving a half-maximal response (EC50) turned out to be 292 nM.
As for `C[C@]1(N[C@@H]2CCCC[C@H]2Nc2ncc(-c3cccc(C(N)=O)c3)o2)CCCN(c2cnc(C(F)(F)F)cn2)C1` [Example 472], under setting [3], the EC50 was 9 nM.
Take `CCCCNC(=O)c1cccc(-c2ccnc(N[C@@H]3CCCC[C@H]3N[C@H]3CCCN(c4ccc(C(F)(F)F)cc4)C3)c2)c1` [Example 141]: the EC50 under setting [2] is 227 nM.
For the molecule `N#Cc1ccc(N2CCC[C@H](N[C@@H]3CCCC[C@H]3Nc3ncc(-c4ccccc4OC(F)(F)F)o3)C2)cc1` [Example 226], the half-maximal effective concentration (EC50) under setting [6] was 5 nM.
For the molecule `OCCc1ccccc1-c1ccnc(N[C@@H]2CCCC[C@H]2N[C@H]2CCCN(c3ccc(C(F)(F)F)cc3)C2)c1` [Example 156], the half-maximal effective concentration (EC50) under setting [2] was found to be 50 nM.
For `N#Cc1ccc(N2CCC[C@H](N[C@@H]3CCCC[C@H]3Nc3nccc(-c4ccccc4)n3)C2)cc1` [Example 60, 4-((S)-3-((1R,2R)-2-(4-Phenylpyrimidin-2-ylamino)cyclohexylamino)piperidin-1-yl)benzonitrile bis-trifluoroacetate], the EC50 under setting [1] was 500 nM.
Turning to `CC(C)(C)Oc1ccc(-c2cnc(N[C@@H]3CCCC[C@H]3N[C@H]3CCCN(c4ccc([N+](=O)[O-])cc4)C3)o2)cc1` [Example 14, (1R,2R)—N1-(5-(4-tert-Butoxyphenyl)oxazol-2-yl)-N2-((S)-1-(4-nitrophenyl)piperidin-3-yl)cyclohexane-1,2-diamine], under setting [1], the EC50 turned out to be 920 nM.
Regarding `NC(=O)c1cccc(-c2cnc(N[C@@H]3CCCC[C@H]3N[C@H]3C[C@@H]4C[C@H]3N(c3ccc(C(F)(F)F)cn3)C4)o2)c1` [Example 326], the 50% effective concentration (EC50) under setting [4] was found to be 9 nM.
For the molecule `COc1ccc(-c2ccnc(N[C@@H]3CCCC[C@H]3N[C@H]3CCCN(c4ccc([N+](=O)[O-])cc4)C3)n2)cc1` [Example 31, (1R,2R)—N1-(4-(4-Methoxyphenyl)pyrimidin-2-yl)-N2-((S)-1-(4-nitrophenyl)piperidin-3-yl)cyclohexane-1,2-diamine], under setting [1], the concentration giving a half-maximal response (EC50) turned out to be 241 nM.
As to `N#Cc1ccc(N2C[C@@H]3C[C@H](N[C@@H]4CCCC[C@H]4Nc4cc(-c5cccc(C(N)=O)c5)ccn4)[C@H]2C3)cn1` [Example 302], the concentration for a half-maximal effect (EC50) under setting [5] came to 1210 nM.
For the molecule `O=C1OCCN1c1cccc(-c2cnc(N[C@@H]3CCCC[C@H]3N[C@H]3CCCN(c4cnc(C(F)(F)F)nc4)C3)o2)c1` [Example 416], the EC50 under setting [3] worked out at 49 nM.
As for `C=C(C)c1ccnc(N[C@@H]2CCCC[C@H]2N[C@H]2CCCN(c3ccc(C#N)cc3)C2)c1` [Example 234], under setting [6], the 50% effective concentration (EC50) is 299 nM.
As for `N#Cc1ccc(N2CCC[C@H](N[C@@H]3CCCC[C@H]3Nc3cc(-c4ccc5[nH]ncc5c4)ccn3)C2)cc1` [Example 210], the concentration for a half-maximal effect (EC50) under setting [6] was 640 nM.
Turning to `NC(=O)c1cccc(-c2cnc(N[C@@H]3CCCC[C@H]3N[C@H]3C[C@@H]4C[C@H]3N(c3ccnc(C(F)(F)F)c3)C4)o2)c1` [Example 325], the EC50 under setting [4] was 567 nM.
As to `N#Cc1ccc(N2CCC[C@H](N[C@@H]3CCCC[C@H]3Nc3cc(-c4cc(C#N)cs4)ccn3)C2)cc1` [Example 269], the EC50 under setting [6] is 223 nM.
Take `O=[N+]([O-])c1ccc(N2C[C@@H]3C[C@H](N[C@@H]4CCCC[C@H]4Nc4ncc(-c5ccccc5)o4)[C@H]2C3)cc1` [Example 6, (1R,2R)—N1-((1R,4R,6S)-2-(4-Nitrophenyl)-2-azabicyclo[2.2.1]heptan-6-yl)-N2-(5-phenyloxazol-2-yl)cyclohexane-1,2-diamine]: under setting [1], the EC50 stood at 6 nM.
In the case of `N#Cc1ccc(N2CCC[C@H](N[C@@H]3CCCC[C@H]3Nc3cc(-c4cncc5ccccc45)ccn3)C2)cc1` [Example 216], under setting [6], the EC50 is 189 nM.
Take `FC(F)(F)c1ccc(N2CCC[C@H](N[C@@H]3CCCC[C@H]3Nc3cc(-c4cccc(-n5cccn5)c4)ccn3)C2)cc1` [Example 158]: under setting [2], the EC50 was found to be 53 nM.
Turning to `CC(=O)Nc1cc(-c2ccnc(N[C@@H]3CCCC[C@H]3N[C@H]3CCCN(c4ccc(C#N)cc4)C3)c2)ccn1` [Example 277], under setting [6], the EC50 amounted to 8 nM.
On to `O=[N+]([O-])c1cnc(N2CCC[C@H](N[C@@H]3CCCC[C@H]3Nc3ncc(-c4ccccc4)o3)C2)nc1` [Example 77, (1R,2R)—N1-((S)-1-(5-Nitropyrimidin-2-yl)piperidin-3-yl)-N2-(5-phenyloxazol-2-yl)cyclohexane-1,2-diamine bis-trifluoroacetate], for which the EC50 under setting [1] is 34 nM.
Take `FC(F)(F)c1ccc(N2CCC[C@H](N[C@@H]3CCCC[C@H]3Nc3ncc(Cl)cn3)C2)cc1` [Example 196]: under setting [2], the EC50 stood at 809 nM.
As for `NC(=O)c1cccc(-c2ccnc(N[C@@H]3CCCC[C@H]3N[C@H]3C[C@@H]4C[C@H]3N(c3cnc(C(F)(F)F)cn3)C4)c2)c1` [Example 471], the EC50 under setting [3] stood at 329 nM.
Turning to `N#Cc1ccc(N2CCC[C@H](N[C@@H]3CCCC[C@H]3Nc3cc(-c4ccc5cn[nH]c5c4)ccn3)C2)cc1` [Example 215], the concentration for a half-maximal effect (EC50) under setting [6] is 215 nM.
Consider `CC(C)(C)OC(=O)Nc1cccc(-c2cnc(N[C@@H]3CCCC[C@H]3N[C@H]3CCCN(c4ccc(C(F)(F)F)nc4)C3)o2)c1` [Example 333], for which, under setting [4], the EC50 was found to be 95 nM.
With `NC(=O)c1cccc(-c2ccnc(N[C@@H]3CCCC[C@H]3N[C@H]3C[C@@H]4C[C@H]3N(c3ccc(C(F)(F)F)nc3)C4)c2)c1` [Example 327], the EC50 under setting [4] came out at 180 nM.
In the case of `N#Cc1ccc(N2CCCC(N[C@@H]3CCCC[C@H]3Nc3ncc(-c4ccc(OC(F)(F)F)cc4)o3)C2)nc1` (stereo partly drawn) [Example 315], under setting [5], the concentration for a half-maximal effect (EC50) was determined as 15 nM.
`CC(C)(C)NC(=O)c1cccc(-c2cnc(N[C@@H]3CCCC[C@H]3N[C@H]3CCCN(c4ccc(C(F)(F)F)cc4)C3)o2)c1` [Example 118]: the EC50 under setting [2] was determined as 38 nM.
Take `COc1ccccc1-c1ccnc(N[C@@H]2CCCC[C@H]2N[C@H]2CCCN(c3ccc(C#N)cc3)C2)c1` [Example 262]: the half-maximal effective concentration (EC50) under setting [6] turned out to be 116 nM.
Turning to `O=[N+]([O-])c1ccc(N2CCC[C@H](N[C@@H]3CCCC[C@H]3Nc3cc(-c4cccc(OC(F)(F)F)c4)ccn3)C2)cc1` [Example 23, (1R,2R)—N1-((S)-1-(4-Nitrophenyl)piperidin-3-yl)-N2-(4-(3-(trifluoromethoxy)phenyl)pyridin-2-yl)cyclohexane-1,2-diamine], under setting [1], the 50% effective concentration (EC50) is 71 nM.
Turning to `CNC(=O)c1cccc(-c2cnc(N[C@@H]3CCCC[C@H]3N[C@H]3CCCN(c4ccc(-c5noc(C)n5)nc4)C3)o2)c1` [Example 385], under “TABLE 7, R2 is Pyridinyl-oxadiazole-CH3, read-out: hY4 CAMP EC50”, the EC50 worked out at 9 nM.
Take `NC(=O)c1cccc(-c2cnc(N[C@@H]3CCCC[C@H]3N[C@H]3CCCN(c4ncc(C(F)(F)F)cn4)C3)o2)c1` [Example 398]: the EC50 under setting [3] worked out at 5 nM.
On the same count and under the same terms, as for `Cc1noc(-c2ccc(N3CCC[C@H](N[C@@H]4CCCC[C@H]4Nc4cc(-c5cccc(C(C)(C)O)c5)ccn4)C3)cc2)n1` [Example 362], the figure is 23 nM.
